Test results reported in publication PMC8587475, “Black Bean (Phaseolus vulgaris L.) Polyphenolic Extract Exerts Antioxidant and Antiaging Potential” (Molecules, 2021).

Biological target: T1, elastase from porcine pancreas (EC 3.4.21.36) (Sus scrofa, UniProt P00772)
T1 construct: gene CELA1; commercial native enzyme from porcine pancreas (Sigma-Aldrich), mature; docking model PDB 1BRU (elastase 2) is not the assay sample
Experiment: N-succinyl-Ala-Ala-Ala-p-nitroanilide hydrolysis, absorbance at […] nm
Assay type: biochemical

T1 sequence (P00772 27-266): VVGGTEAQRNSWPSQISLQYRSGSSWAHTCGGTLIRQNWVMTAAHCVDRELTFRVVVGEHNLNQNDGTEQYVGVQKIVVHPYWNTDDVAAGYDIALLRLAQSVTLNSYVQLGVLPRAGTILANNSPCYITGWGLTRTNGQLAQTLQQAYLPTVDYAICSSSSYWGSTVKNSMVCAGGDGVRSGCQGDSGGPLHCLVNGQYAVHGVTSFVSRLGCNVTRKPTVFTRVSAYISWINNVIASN

IC50: 18.4 µM
Structure (SMILES): Oc1cc(O)c2c(c1)OC(c1ccc(O)c(O)c1)C(O)C2 (racemic) [catechin]
